Assay results reported in ChEMBL document CHEMBL1148505, “Inhibition of Plasmodium falciparum fatty acid biosynthesis: evaluation of FabG, FabZ, and FabI as drug targets for flavonoids” (J Med Chem, 2006).
Calls of active or inactive are those of the source. No cut-off for these calls is given here.

Legend:
Fatty acid synthase = target: T1, Fatty acid synthase (Plasmodium falciparum, UniProt Q965D7); assay: Inhibition of FabZ
T1 sequence (Q965D7 whole entry): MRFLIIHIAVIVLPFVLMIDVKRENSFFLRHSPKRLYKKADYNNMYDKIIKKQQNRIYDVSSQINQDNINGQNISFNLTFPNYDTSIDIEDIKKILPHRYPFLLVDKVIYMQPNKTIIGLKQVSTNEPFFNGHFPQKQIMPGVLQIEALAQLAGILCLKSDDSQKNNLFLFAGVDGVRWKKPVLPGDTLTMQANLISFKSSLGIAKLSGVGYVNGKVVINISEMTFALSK

[1] = target: T2, 3-oxoacyl-acyl-carrier protein reductase (Plasmodium falciparum, UniProt Q965D6); assay: Inhibition of FabG
T2 sequence (Q965D6 whole entry): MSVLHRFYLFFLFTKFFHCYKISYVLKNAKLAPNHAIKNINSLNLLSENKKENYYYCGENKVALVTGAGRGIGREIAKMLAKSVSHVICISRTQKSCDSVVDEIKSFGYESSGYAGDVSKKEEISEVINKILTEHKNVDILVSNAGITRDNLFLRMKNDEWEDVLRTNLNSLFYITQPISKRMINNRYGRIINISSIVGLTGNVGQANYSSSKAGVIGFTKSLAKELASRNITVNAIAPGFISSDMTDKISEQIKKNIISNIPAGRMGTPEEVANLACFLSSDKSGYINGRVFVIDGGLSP

[2] = target: T3, Enoyl-acyl-carrier protein reductase (Plasmodium falciparum, UniProt Q965D5); assay: Inhibition of FabI
T3 sequence (Q965D5 whole entry): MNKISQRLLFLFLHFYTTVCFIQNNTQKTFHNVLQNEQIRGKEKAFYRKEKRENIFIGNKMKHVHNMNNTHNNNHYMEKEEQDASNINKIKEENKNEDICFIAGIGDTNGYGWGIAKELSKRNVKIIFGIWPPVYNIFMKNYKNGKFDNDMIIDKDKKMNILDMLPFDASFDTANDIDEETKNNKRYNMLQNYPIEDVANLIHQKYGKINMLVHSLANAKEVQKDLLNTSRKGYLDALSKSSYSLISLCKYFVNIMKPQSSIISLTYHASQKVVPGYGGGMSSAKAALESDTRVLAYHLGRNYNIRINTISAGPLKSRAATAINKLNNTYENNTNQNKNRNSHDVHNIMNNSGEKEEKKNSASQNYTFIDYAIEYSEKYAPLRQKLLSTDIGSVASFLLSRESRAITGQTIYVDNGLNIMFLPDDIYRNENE

Plasmodium falciparum [3] = assay: Antiplasmodial activity against chloroquine-sensitive Plasmodium falciparum NF54; assay type: functional, organism-based
Plasmodium falciparum [4] = assay: Antiplasmodial activity against chloroquine-resistant Plasmodium falciparum K1; assay type: functional, organism-based
[5] = target: T4, 3-oxoacyl-acyl-carrier protein reductase (Plasmodium falciparum) (UniProt Q965D6); assay: Inhibition of FabG at 100 uM
T4 sequence (whole entry): T2 sequence (Q965D6 whole entry)

[6] = target: T5, Fatty acid synthase (Plasmodium falciparum) (UniProt Q965D7); assay: Inhibition of FabZ at 100 uM
T5 sequence (whole entry): T1 sequence (Q965D7 whole entry)

[7] = target: T6, Enoyl-acyl-carrier protein reductase (Plasmodium falciparum) (UniProt Q965D5); assay: Inhibition of FabI at 100 uM
T6 sequence (whole entry): T3 sequence (Q965D5 whole entry)

[8] = target: T2, 3-oxoacyl-acyl-carrier protein reductase; assay: Inhibition of FabG in presence of NADPH
[9] = target: T2, 3-oxoacyl-acyl-carrier protein reductase; assay: Inhibition of FabG in presence of acetoacetyl-CoA

SMILES: O=C(O[C@@H]1Cc2c(O)cc(O)cc2O[C@@H]1c1ccc(O)c(O)c1)c1cc(O)c(O)c(O)c1 [EPICATECHIN GALLATE]
- IC50 (Fatty acid synthase): 400 nM
- IC50 [1]: 1 µM
- IC50 [2]: 200 nM
- IC50 (Plasmodium falciparum [3]): 40 µM
- IC50 (Plasmodium falciparum [4]): 11.3 µM

SMILES: Oc1cc(O)c2c(c1)O[C@H](c1cc(O)c(O)c(O)c1)[C@H](O)C2 [EPIGALLOCATECHIN]
- Activity [5]: inactive
- IC50 (Plasmodium falciparum [3]): > 150 µM
- Activity [6]: inactive
- Activity [7]: inactive

SMILES: O=C(O[C@@H]1Cc2c(O)cc(O)cc2O[C@@H]1c1cc(O)c(O)c(O)c1)c1cc(O)c(O)c(O)c1 [EPIGALOCATECHIN GALLATE]
- IC50 (Fatty acid synthase): 400 nM
- IC50 [2]: 200 nM
- IC50 (Plasmodium falciparum [3]): 25.5 µM
- IC50 (Plasmodium falciparum [4]): 9.9 µM

SMILES: O=c1c(O)c(-c2ccc(O)c(O)c2)oc2cc(O)ccc12 [FISETIN]
- IC50 (Fatty acid synthase): 2000 nM
- IC50 [1]: 4.1 µM
- IC50 [2]: 1000 nM
- IC50 (Plasmodium falciparum [3]): 8.2 µM
- IC50 (Plasmodium falciparum [4]): 6.5 µM

SMILES: O=c1cc(-c2ccccc2)oc2ccccc12 [FLAVONE]
- Activity [5]: inactive
- IC50 (Plasmodium falciparum [3]): 60.8 µM
- Activity [6]: inactive
- Activity [7]: inactive

SMILES: O=c1c(O)c(-c2ccccc2)oc2ccccc12 [FLAVONOL]
- Activity [5]: inactive
- IC50 (Plasmodium falciparum [3]): 24 µM
- Activity [6]: inactive
- Activity [7]: inactive

SMILES: O=c1c(O)c(-c2ccccc2)oc2cc(O)cc(O)c12 [GALANGIN]
- IC50 [1]: 100 µM
- IC50 (Plasmodium falciparum [3]): 39.4 µM
- Activity [6]: inactive
- Activity [7]: inactive

SMILES: O=C(O[C@@H]1Cc2c(O)cc(O)cc2O[C@H]1c1cc(O)c(O)c(O)c1)c1cc(O)c(O)c(O)c1 [GALLOCATECHIN GALLATE]
- IC50 (Fatty acid synthase): 600 nM
- IC50 [2]: 500 nM
- IC50 (Plasmodium falciparum [3]): 40.1 µM
- IC50 (Plasmodium falciparum [4]): 6.2 µM

SMILES: O=c1c(-c2ccc(O)cc2)coc2cc(O)cc(O)c12 [GENISTEIN]
- Activity [5]: inactive
- IC50 (Fatty acid synthase): 7000 nM
- IC50 (Plasmodium falciparum [3]): 38.2 µM
- Activity [7]: inactive

SMILES: COc1cc(O)c2c(=O)cc(-c3ccc(O)cc3)oc2c1 [GENKWANIN]
- Activity [5]: inactive
- IC50 (Plasmodium falciparum [3]): 111 µM
- Activity [6]: inactive
- Activity [7]: inactive

SMILES: COc1cc(-c2oc3cc(O)cc(O)c3c(=O)c2O)ccc1O [ISORHAMNETIN]
- IC50 [1]: 8.3 µM
- IC50 [2]: 5000 nM
- IC50 (Plasmodium falciparum [3]): 14.7 µM
- Activity [6]: inactive

SMILES: O=c1c(O)c(-c2ccc(O)cc2)oc2cc(O)cc(O)c12 [KAEMPFEROL]
- IC50 [1]: 4 µM
- IC50 [2]: 20000 nM
- IC50 (Plasmodium falciparum [3]): 30.4 µM
- Activity [6]: inactive

SMILES: COc1ccc(-c2cc(=O)c3c(O)c(O)c(OC)cc3o2)cc1 [LADANEIN]
- Activity [5]: inactive
- IC50 (Plasmodium falciparum [3]): 9 µM
- Activity [6]: inactive
- Activity [7]: inactive

SMILES: O=c1cc(-c2ccc(O)c(O)c2)oc2cc(O)cc(O)c12 [LUTEOLIN]
- Ki [8]: 800 nM
- IC50 (Fatty acid synthase): 5000 nM
- Ki (Fatty acid synthase): 11.5 µM
- IC50 [1]: 4 µM
- IC50 [2]: 2000 nM
- Ki [2]: 2100 nM
- IC50 (Plasmodium falciparum [3]): 10.7 µM
- Ki [9]: 1800 nM
- IC50 (Plasmodium falciparum [4]): 9.6 µM

SMILES: O=c1c(O)c(-c2ccc(O)cc2O)oc2cc(O)cc(O)c12 [MORIN]
- IC50 (Fatty acid synthase): 8000 nM
- IC50 [1]: 2.3 µM
- IC50 [2]: 5000 nM
- IC50 (Plasmodium falciparum [3]): 110 µM
- IC50 (Plasmodium falciparum [4]): 16.1 µM

SMILES: O=c1c(O)c(-c2cc(O)c(O)c(O)c2)oc2cc(O)cc(O)c12 [MYRICETIN]
- IC50 (Fatty acid synthase): 2000 nM
- IC50 [1]: 14 µM
- IC50 [2]: 400 nM
- IC50 (Plasmodium falciparum [3]): 57.3 µM
- IC50 (Plasmodium falciparum [4]): 12.9 µM

SMILES: O=C1C[C@@H](c2ccc(O)cc2)Oc2cc(O)cc(O)c21 [NARINGENIN]
- Activity [5]: Active
- IC50 (Plasmodium falciparum [3]): 141 µM
- Activity [6]: inactive
- Activity [7]: inactive

SMILES: O=c1c(O)c(-c2ccc(O)c(O)c2)oc2cc(O)cc(O)c12 [QUERCETIN]
- IC50 (Fatty acid synthase): 1500 nM
- IC50 [1]: 5.4 µM
- IC50 [2]: 1500 nM
- IC50 (Plasmodium falciparum [3]): 10 µM
- IC50 (Plasmodium falciparum [4]): 8.9 µM

SMILES: COc1cc(O)c2c(=O)c(OC)c(-c3ccc(OC)c(OC)c3)oc2c1 [RETUSIN]
- Activity [5]: inactive
- IC50 (Plasmodium falciparum [3]): 73.3 µM
- Activity [6]: inactive
- Activity [7]: inactive
